Molecules are shown by their SMILES.

This note sets out measurements from a melting point compilation (Tetko et al.).

`CCNC(c1cccnc1)c1ccc2c(c1)CCO2` (centres undefined): the melting point (as a rule, the temperature, or range, at which the solid turns liquid) fell in the range of 50 to 52 °C. The result for `O=S(=O)(Cl)c1csc(-c2ccc(Cl)cc2)n1` reads 93 to 95 °C; that for `O=C(O)c1cc(OCC2CC2)c2ccccc2n1`, 164 to 166 °C. Turning to `Cn1c(C(=O)O)ccc1-c1ccc(F)cc1`, the melting point lay within 159 to 161 °C.

`CC1CCC(NC(=O)C(C)Cl)CC1` (centres undefined) had a melting point of 135 to 137 °C. Compound `COc1csc(C(=O)O)c1` returned a melting point of 167 to 169 °C. Turning to `CC1(C)CCC(C#N)=C1N`, the melting point lay within 108 to 110 °C. Compound `CSc1ccc(CN2CCNCC2)cc1` displayed a melting point of 53 to 55 °C.

Turning to `Nc1ncnc(Cl)c1C=O`, the melting point lay in the range of 159 to 161 °C. In turn, `CN(C)c1c(N)n(C)c(=O)[nH]c1=O` gave a melting point of 161 to 163 °C. On to `O=C(O)c1cccc(Oc2nccs2)c1`, for which the melting point is 102 to 104 °C. Compound `O=C(O)c1ccc(-c2cnccn2)cn1` showed a melting point of 199 to 201 °C. Turning to `O=C(CN1CCCC1)Nc1c(I)cc(I)cc1I`, the melting point lay in the range of 184 to 186 °C. Take `COc1cc(C(=O)O)cc(Cl)c1OCC(N)=O`: the melting point is 211 to 213 °C. With `NCc1cccc(NC(=O)c2cccc(F)c2)c1`, the melting point was 100 to 102 °C. In turn, `O=C1C(Br)CCN1c1cccc([N+](=O)[O-])c1` (centres undefined) returned a melting point of 104 to 106 °C. The result for `COCCc1nnc(-c2cccc(C(=O)O)c2)o1` reads 156 to 158 °C; that for `O=C1CCS(=O)(=O)c2ccc(Br)cc21`, 146 to 148 °C. To `NNC(=O)Nc1ccc(Br)cc1Cl` belongs 163 to 165 °C. The result for `COc1cc(Br)ccc1C(=O)O` reads 154 to 156 °C. Regarding `CC(=O)c1nc2ccccc2n1C`, the melting point was in the range of 67 to 69 °C. To `COC(=O)c1ccc(S(N)(=O)=O)s1` belongs 150 to 152 °C. The result for `COc1cc(C=O)ccc1OCC(=O)c1ccccc1` reads 127 to 129 °C; that for `Cn1cc(C#N)ccc1=O`, 159 to 161 °C; that for `Cc1csc(Sc2ccc(N)cc2Cl)n1`, 112 to 114 °C. To `COc1cccc(-c2nonc2N)c1` belongs 74 to 76 °C; to `O=C(O)CN(C(=O)c1ccc(Br)o1)c1ccccc1`, 129 to 131 °C. Take `O=C(c1cccnc1)c1c(F)cc(F)cc1F`: the melting point was in the range of 38 to 40 °C.

As to `O=C(O)c1ccccc1NCc1ccccc1Cl`, the melting point was in the range of 183 to 185 °C. The result for `O=C(O)c1cc(CO)on1` reads 129 to 131 °C. The result for `CCC(C)(CNC(=O)OC(C)(C)C)C(=O)O` (centres undefined) reads 113 to 115 °C.

`O=C(c1ccccc1)C1CCOCC1` came in with a melting point of 57 to 59 °C. The result for `CC(C)(C)OC(=O)N1CCC(O)(C(F)(F)F)C1` (centres undefined) reads 102 to 104 °C. To `Brc1nnc(Cc2ccccc2)s1` belongs 79 to 81 °C. The result for `O=C(O)c1ccc(=O)n(Cc2ccccc2)n1` reads 192 to 195 °C. `CNc1c(F)cccc1C(N)=O` had a melting point of 186 to 188 °C.

The compound `Cc1ccc(NC(N)=O)cc1C` came in with a melting point of 170 to 172 °C. The result for `Nc1cc(C2CC2)no1` reads 52 to 54 °C. The result for `O=c1c2ccccc2nc(S)n1CCCN1CCOCC1` reads 175 to 177 °C; that for `Cc1cn(CC(=O)O)c2ccccc12`, 175 to 177 °C. To `NCC(O)COc1ccc(I)cc1` (centres undefined) belongs 129 to 131 °C; to `COc1ccc(C=CC(=O)O)cc1S(=O)(=O)N1CCCCC1`, 219 to 221 °C; to `COC(=O)CN1CCC(C(N)=O)CC1`, 126 to 128 °C.

Regarding `CC(C)(C)c1ccc(C(C)(C)N)cc1`, the melting point was 75 to 77 °C. The compound `Fc1ccccc1-c1nnc(S)n1Cc1ccccc1` came in with a melting point of 90 to 92 °C. To `N#Cc1cccc2cnccc12` belongs 126 to 128 °C. `CNS(=O)(=O)c1cc(Br)ccc1C` returned a melting point of 105 to 107 °C. `Cn1c(S)nc2sccc2c1=O` returned a melting point of 317 to 319 °C.

Regarding `Nc1c(F)cc(Br)cc1C(=O)O`, the melting point is 214 to 216 °C.
